Data: the supplement of paper PMC10307832

Columns and labels:
Assay in all cases: relative viability (nuclei count vs DMSO), 5 days (fraction); higher = more cells survive
DM3189 = compound: C1CN(CCN1)C2=CC=C(C=C2)C3=CN4C(=C(C=N4)C5=CC=NC6=CC=CC=C56)N=C3 [DM3189]
How it was run: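 A plate was accepted only when its control CV was below 25% and the cells had doubled at least once. Viability is defined from nuclear counts as treated wells divided by vehicle wells, with the median taken across plates. That median covers lung cancer cell lines grown in 1536-well plates, dosed by pinning at five √10-spaced library-drug concentrations, and counted in MetaXpress from 4× Hoechst images after 5 days.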

DM3189 + Vorinostat = compound: C1CN(CCN1)C2=CC=C(C=C2)C3=CN4C(=C(C=N4)C5=CC=NC6=CC=CC=C56)N=C3 [DM3189] + O=C(CCCCCCC(=O)Nc1ccccc1)NO [Vorinostat] (partner 1 µM)
How it was run: (§1)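 The day after seeding in 1536-well plates, lung cancer cell lines were treated by pin tool with a single drug, or with a fixed anchor-drug dose together with five library-drug doses (not always all listed) in √10 steps. After 5 days, a combined fix-and-stain solution (final 0.05% Triton X-100, 1% formaldehyde, 1 ug/ml Hoechst) was added. Nuclei counted on 4× images gave relative viability as treated counts over vehicle counts, reported as the median of duplicate plates.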

DM3189 + Lapatinib = compound: C1CN(CCN1)C2=CC=C(C=C2)C3=CN4C(=C(C=N4)C5=CC=NC6=CC=CC=C56)N=C3 [DM3189] + CS(=O)(=O)CCNCc1ccc(-c2ccc3ncnc(Nc4ccc(OCc5cccc(F)c5)c(Cl)c4)c3c2)o1 [Lapatinib] (partner 2 µM)
How it was run: as §1

DM3189 + Trametinib = compound: C1CN(CCN1)C2=CC=C(C=C2)C3=CN4C(=C(C=N4)C5=CC=NC6=CC=CC=C56)N=C3 [DM3189] + CC(=O)Nc1cccc(-n2c(=O)n(C3CC3)c(=O)c3c(Nc4ccc(I)cc4F)n(C)c(=O)c(C)c32)c1 [Trametinib] (partner 0.02 µM)
How it was run: as §1

DM3189 + AZD7762 = compound: C1CN(CCN1)C2=CC=C(C=C2)C3=CN4C(=C(C=N4)C5=CC=NC6=CC=CC=C56)N=C3 [DM3189] + NC(=O)Nc1cc(-c2cccc(F)c2)sc1C(=O)N[C@H]1CCCNC1 [AZD7762] (partner 0.2 µM)
How it was run: as §1

| Cell Line | relative viability (DM3189; 0.08 µM) | relative viability (DM3189; 0.253 µM) | relative viability (DM3189; 0.8 µM) | relative viability (DM3189; 2.53 µM) | relative viability (DM3189 + Vorinostat; first compound 0.08 µM) | relative viability (DM3189 + Vorinostat; first compound 0.253 µM) | relative viability (DM3189 + Vorinostat; first compound 0.8 µM) | relative viability (DM3189 + Lapatinib; first compound 0.08 µM) | relative viability (DM3189 + Lapatinib; first compound 0.253 µM) | relative viability (DM3189 + Lapatinib; first compound 0.8 µM) | relative viability (DM3189 + Lapatinib; first compound 2.53 µM) | relative viability (DM3189 + Trametinib; first compound 0.08 µM) | relative viability (DM3189 + Trametinib; first compound 0.253 µM) | relative viability (DM3189 + Trametinib; first compound 0.8 µM) | relative viability (DM3189 + AZD7762; first compound 0.08 µM) | relative viability (DM3189 + AZD7762; first compound 0.253 µM) | relative viability (DM3189 + AZD7762; first compound 0.8 µM) | relative viability (DM3189 + AZD7762; first compound 2.53 µM) | relative viability (DM3189 + Vorinostat; first compound 2.53 µM) | relative viability (DM3189 + Trametinib; first compound 2.53 µM) |
| --- | --- | --- | --- | --- | --- | --- | --- | --- | --- | --- | --- | --- | --- | --- | --- | --- | --- | --- | --- | --- |
| NCI-H1666 | 1.04 | 1.02 | 1.1 | 1.12 | 1.04 | 1.02 | 1.09 | 0.789 | 0.736 | 0.51 | 0.712 | 1.03 | 0.951 | 0.863 | 1.11 | 0.812 | 0.878 | 0.941 | – | – |
| NCI-H3122 | 0.992 | 0.901 | 0.905 | 0.975 | 0.992 | 0.74 | 0.841 | 0.976 | 1.02 | 0.911 | 0.878 | 0.19 | 0.205 | 0.181 | 0.978 | 0.964 | 0.912 | 0.816 | 1.11 | 0.217 |
| HCC-78 | 1.03 | 0.925 | 0.845 | 0.933 | 0.41 | 0.453 | 0.51 | 0.981 | 0.656 | – | 0.825 | 0.64 | 0.588 | 0.541 | 0.644 | 0.546 | 0.497 | 0.531 | 0.557 | 0.624 |
| NCI-H2170 | 1.06 | 1.01 | 0.981 | 0.946 | 0.921 | 0.811 | 0.725 | 0.277 | 0.256 | 0.256 | 0.268 | 1.09 | 0.96 | 0.835 | 0.933 | 0.884 | 0.875 | 0.652 | 0.658 | 0.825 |
| NCI-H1793 | 1.22 | 0.991 | 0.929 | 1.01 | 0.993 | 0.633 | 0.911 | 0.653 | 0.773 | 1.01 | 0.711 | 0.507 | 0.603 | 0.532 | 0.524 | 0.519 | 0.273 | 0.347 | 1.12 | 0.742 |
| HCC-366 | 1.05 | 0.905 | 0.925 | 0.989 | 0.363 | 0.285 | 0.191 | 0.839 | 0.93 | 0.681 | 0.931 | 0.414 | 0.362 | 0.352 | 0.293 | 0.267 | 0.197 | 0.241 | 0.41 | 0.432 |
| NCI-H1651 | 1.03 | 1.02 | 0.96 | 1.16 | 0.657 | 0.587 | 0.549 | 1.08 | 0.852 | 0.826 | 0.984 | 0.867 | 0.793 | 0.813 | 0.536 | 0.457 | 0.443 | 0.444 | 0.629 | 0.937 |
| LC-2-ad | 1.07 | 1 | 0.874 | 1.05 | 0.744 | 0.7 | 0.663 | 0.946 | 0.787 | 0.823 | 0.836 | 0.938 | 0.901 | 0.875 | 0.927 | 0.872 | 0.872 | 0.8 | 0.723 | 0.919 |
| HCC-827 | 1.02 | 1 | 0.956 | 0.983 | 1.04 | 0.821 | 0.876 | 0.179 | 0.161 | 0.16 | 0.192 | 0.492 | 0.535 | 0.502 | 0.207 | 0.194 | 0.205 | 0.195 | 0.681 | 0.54 |
| LOU-NH91 | 1.16 | 0.921 | 0.832 | 0.924 | 1.15 | 0.891 | 0.71 | 0.76 | 0.704 | 0.544 | 0.605 | 0.846 | 0.793 | 0.685 | 0.825 | 0.73 | 0.642 | 0.683 | 0.91 | 0.765 |
| NCI-H727 | 1.02 | 0.815 | 0.735 | 0.986 | 1.43 | 1.05 | 0.972 | 0.829 | 0.626 | – | 0.781 | 0.416 | 0.433 | 0.445 | 0.613 | 0.602 | 0.629 | 0.526 | 1.13 | 0.47 |
| LU99A | 1.05 | 0.912 | – | 0.933 | 0.492 | 0.434 | – | 1.02 | 0.879 | – | 0.987 | 0.661 | 0.533 | – | 0.379 | 0.362 | – | 0.283 | 0.458 | 0.634 |
| HOP-62 | 1.08 | 0.945 | 0.932 | 1.03 | 0.566 | 0.702 | 0.573 | 1.23 | 0.968 | 1.01 | 0.977 | 0.421 | 0.509 | 0.475 | 0.672 | 0.646 | 0.621 | 0.596 | 0.66 | 0.51 |
| NCI-H1993 | 1.01 | 0.913 | 0.831 | 1.05 | 0.856 | 0.803 | 0.813 | – | 0.533 | 0.722 | 0.746 | 0.504 | 0.501 | 0.641 | 0.824 | 0.776 | 0.653 | 0.643 | 0.854 | 0.486 |
| NCI-H1734 | 1.13 | 0.95 | 0.916 | 0.888 | 0.842 | 0.805 | 0.718 | 1.07 | 0.987 | 0.961 | 0.939 | 0.651 | 0.623 | 0.652 | 0.6 | 0.573 | 0.511 | 0.383 | 0.59 | 0.685 |
| EKVX | 1.21 | 0.949 | 0.887 | 1 | 0.856 | 0.72 | 0.678 | 0.201 | 0.183 | 0.228 | 0.245 | 0.325 | – | 0.328 | 0.809 | – | 0.623 | 0.638 | 0.62 | 0.338 |
